Where a name gives a salt, the structure may show the parent alone.
What was measured:
[1] = H-ORAC (hydrophilic oxygen radical absorbance capacity) assay; format: biochemical; conditions: sodium salt aqueous solution, phosphate buffer pH 7.4
Experimental: (§1) To study the free radical scavenging activity of a triprenyl phenol compound, the following H-ORAC (hydrophilic oxygen radical absorbance capacity) assay, and modified H-ORAC (mH-ORAC) assay were conducted.
(§2) SMTP compounds evaluated by H-ORAC were used respectively in a form of a sodium salt aqueous solution, and the compounds evaluated by mH-ORAC were used respectively in a form of an acetone solution.
(§3) In H-ORAC a test compound was diluted appropriately with a buffer solution (75 mM phosphate buffer solution, pH 7.4) and used for measurement. In mH-ORAC a test compound was diluted appropriately by a 50% (v/v) acetone solution, prepared by diluting an acetone solution with water, to prepare a solution of 40-fold the final concentration. […] As for the reference material Trolox, 500 μM/buffer solution was diluted appropriately with a buffer solution.
(§4) To a 96-well microplate (transparent, flat bottom, black wall) 50 μL of a test compound solution or a Trolox solution was placed, and additionally 100 μL of a fluorescein 140 nM/buffer solution as a fluorescent substance was added (final concentration 70 nM), followed by incubation at 37° C. for […].
(§5) As a free radical generator, 50 μL of a 48 mM/buffer solution of 2,2′-azobis(amidinopropane)dihydrochloride was added (final concentration 12 mM), and fluorescence intensity at fluorescence wavelength of 535 nm with excitation wavelength of 485 nm was measured at 2 min intervals for 90 min. The calibration curve was prepared between the Trolox final concentrations of 5 to 15 μM. The measurement was conducted by changing the concentration with n=3, and plotted on a diagram with time on the abscissa and the fluorescence intensity on the ordinate. Therewith evaluation was made using the value obtained by reducing the area under the curve for the blank from the area under the curve for the sample. The result was expressed as an equivalent to Trolox.

[2] = modified H-ORAC (mH-ORAC) assay; format: biochemical; conditions: acetone solution, acetone final concentration 1.25%
Experimental: as §1, §2, §3, §4, §5

[3] = test system: Mongolian gerbil cerebral infarction model; assay: Mongolian gerbil cerebral infarction model (acetic acid-induced thrombus): infarction area percentage and neurological symptom; format: in vivo; conditions: mean ± SE, n=6; for Infarction area: evaluated 24 h; for Neurological scores: score 0-4 at 24 h
Source text: Anesthesia was induced to a male Mongolian gerbil (body weight 55 to 65 g) by inhalation of 5% isoflurane (trade name Escain, Mylan Inc.), and maintained with 1 to 1.5% isoflurane. The Mongolian gerbil was fixed in a dorsal position, and the neck was dehaired and then disinfected with 70% ethanol. After median incision of the neck, the right common carotid artery was detached, clamped to block the blood flow temporarily, and coated with 100% acetic acid by 30 reciprocating motions so as to produce a thrombus. The blood vessel was reopened after 10 min of the blockage of the blood flow to transfer the thrombus by the blood stream into the brain to make it ischemic and generate cerebral infarction. The operating field was closed with an instant adhesive (trade name Aron Alpha (Krazy Glue), Toagosei Co., Ltd.) and disinfected with 70% ethanol.
Twenty four hours after the initiation of the operation neurological symptoms were observed as an indicator for cerebral infarction. Many types of neurological symptoms specific to cerebral infarction, such as extension of a hindlimb or circling to one direction, have been reported. Applying a modified evaluation method of the method proposed by Longa, et al. (Stroke 1989; 20:84-91) postoperative neurological symptoms were evaluated as per: no deficit, 0; extension of limb, 1; circling to one direction, 2; incline posture, 3; diminished motion, 4.
With respect to statistical analysis, for multiple comparisons was conducted firstly one-way analysis of variance (ANOVA) and then a Bonferroni test was conducted, if significant difference is detected. Significant difference was positively recognized with significance level 5% (P<0.05). All the results are expressed in mean±standard error.
After the evaluation of neurological symptoms according to the above method, the animal was decapitated under anesthesia with isoflurane. The cranial bone was exfoliated of skin and opened, and, after scission of optic nerve, the brain was extirpated and dipped in a physiological saline solution to remove attached body hairs, etc. The extirpated brain was placed in a brain matrix (RBM-1000C, ASI Instruments) to carry out coronal slicing from the frontal pole at thickness of 2 mm. The slices were dipped in 2% 2,3,5-triphenyl-2H-tetrazolium chloride (TTC), and incubated for staining at 37° C. for 30 min in a CO2 incubator. The colorless TTC is reduced by hydrogen liberated by the action of dehydrogenase contained in a normal cell converting to dark red colored water-insoluble 1,3,5-triphenylformazan (TPF), so that the normal cell is stained. Unstained area (white area) was defined as an infarction area. Meanwhile, the corpus callosum, which is commissural fibers connecting the right and left cerebral hemispheres, is not stained and is white, and therefore image processing for the analyses as described below was conducted excluding the corpus callosum.
After staining images of the brain slices were taken by a digital camera under a stereoscopic microscope. For analysis of the infarction area percentage, an image analysis software Image J (Version 1.4) was used. Full, excluding the corpus callosum, images of the taken 2nd, 3rd, and 4th brain slice images were converted to grayscale. From the grayscale images a histogram for the whole brain as the object scope was obtained showing in the ordinate the frequency of occurrence (frequency) at certain brightness, and showing in the abscissa the brightness (0 to 255). The sum from 0 to 255 was defined as the area size of the whole brain, and the sum from 160 to 219 was defined as the area size of the infarction area. Then the infarction area percentage was determined according to the following formula using the total area size of the infarction areas and the total area size of the whole brain, of the 3 brain slice images. Statistical analysis was conducted as above. […]

[4] = 1 mg/kg i.v., administration initiated 1 hr after ischemia
[5] = 3 mg/kg i.v., administration initiated 0 hr after ischemia
[6] = 3 mg/kg i.v., administration initiated 1 hr after ischemia
[7] = 3 mg/kg i.v., administration initiated 3 hr after ischemia
[8] = 10 mg/kg i.v., administration initiated 1 hr after ischemia
[9] = 1 mg/kg i.v., administration initiated 0 hr after ischemia

With `CSCC[C@@H](C(=O)O)N1Cc2c(cc(O)c3c2O[C@@](C)(CCC=C(C)CCC=C(C)C)[C@@H](O)C3)C1=O` [SMTP-13] as the compound, how does the “free radical scavenging activity, Trolox equivalent” value (“free radical scavenging activity” for short) [1] read?
The value was 3.07 ± 0.51 molTE/mol.

For `CC(C)=CCCC(C)=CCCC1(C)Oc2c(c(O)cc3c2CN(CCCCC(C(=O)O)N2Cc4c(cc(O)c5c4OC(C)(CCC=C(C)CCC=C(C)C)C(O)C5)C2=O)C3=O)CC1O` (stereo not drawn) [SMTP-8], which “free radical scavenging activity” value [2] is on record?
Its value is 1.69 ± 0.14 molTE/mol.

Which “free radical scavenging activity” value [1] does the source give for `CC(C)=CCC/C(C)=C/CCC1(C)Oc2c(c(O)cc3c2CN(C(Cc2ccccc2)C(=O)O)C3=O)CC1O` (stereo not drawn) [SMTP-4] here?
Its value is 1.79 ± 0.02 molTE/mol.

Which “free radical scavenging activity” value [1] does the source give for `CC(C)=CCCC(C)=CCC[C@]1(C)Oc2c(c(O)cc3c2CN([C@@H](Cc2ccc(O)cc2)C(=O)O)C3=O)C[C@@H]1O` [SMTP-14] here?
The value was 4.43 ± 0.49 molTE/mol.

Which results are given for `CC1=NN(c2ccccc2)C(=O)C1` [edaravone]?
Infarction area [3, 4]: 12.8 ± 2.87%; Neurological scores [3, 4]: 3.17 ± 0.17; Infarction area [3, 5]: 9.95 ± 3.22%; Neurological scores [3, 5]: 1.50 ± 0.67; Infarction area [3, 6]: 8.29 ± 1.61 %; Neurological scores [3, 6]: 1.50 ± 0.67; Infarction area [3, 7]: 12.3 ± 5.59%; Neurological scores [3, 7]: 2.50 ± 0.56; Infarction area [3, 8]: 9.29 ± 2.17%; Neurological scores [3, 8]: 1.83 ± 0.65

For `Clc1ccccc1CN1CCc2sccc2C1` [ticlopidine HCl], which Infarction area [3, 9] is on record?
The Infarction area was 8.83 ± 1.73%.

And the Neurological scores [3, 9]?
Its Neurological scores is 2.33 ± 0.42.

And the Infarction area [3, 4]?
Its Infarction area is 13.1 ± 3.89%.

What about the Neurological scores [3, 4] of the same compound?
Its Neurological scores is 2.67 ± 0.56.

What about the Infarction area [3, 8] of the same compound?
Its Infarction area is 9.84 ± 1.81%.

And the Neurological scores [3, 8]?
Its Neurological scores is 2.33 ± 0.42.

Which results are given for `CC1CNc2c(cccc2S(=O)(=O)N[C@@H](CCCNC(=N)N)C(=O)N2CC[C@@H](C)C[C@@H]2C(=O)O)C1` (stereo partly drawn) [argatroban]?
Infarction area [3, 9]: 10.0 ± 2.66%; Neurological scores [3, 9]: 2.33 ± 0.61; Infarction area [3, 4]: 12.1 ± 2.46%; Neurological scores [3, 4]: 2.50 ± 0.50; Infarction area [3, 8]: 11.5 ± 2.57%; Neurological scores [3, 8]: 2.50 ± 0.56

With `CC(C)=CCC/C(C)=C/CCC1(C)Oc2c(c(O)cc3c2CN([C@H](CC(C)C)C(=O)O)C3=O)CC1O` (stereo partly drawn) [SMTP-5D] as the compound, how does the “free radical scavenging activity” value [1] read?
The value was 1.71 ± 0.20 molTE/mol.

Which “free radical scavenging activity” value [1] does the source give for `CC(C)=CCCC(C)=CCC[C@]1(C)Oc2c(c(O)cc3c2CN(c2ccc(S(=O)(=O)O)cc2)C3=O)C[C@@H]1O` [SMTP-42] here?
Its value is 3.28 ± 0.25 molTE/mol.

For `CC(C)=CCC/C(C)=C/CC[C@]1(C)Oc2c(c(O)cc3c2CN(CCO)C3=O)C[C@@H]1O` [SMTP-1], which “free radical scavenging activity” value [2] is on record?
Its value is 4.35 ± 0.55 molTE/mol.

Which “free radical scavenging activity” value [2] does the source give for `CC(C)=CCC/C(C)=C/CC[C@]1(C)Oc2c(c(O)cc3c2CNC3=O)C[C@@H]1O` [SMTP-0] here?
Its value is 7.76 ± 0.36 molTE/mol.

— patent publication USRE49351E1, “Cytoprotective agent” (Biogen MA Inc., priority 2009, dated 2023)
